# In US20050130909A1 (priority 2002, published 2005):
# What was measured:
# [1] = Rat mass balance study; format: in vivo, Sprague-Dawley rats
# Description: Mass balance studies were conducted to determine the excretion pattern of dalbavancin following a single intravenous (IV) infusion of dalbavancin in male rats.
# Water and methanol cage washes were also collected.
# [2] = tested on: dipeptide (D-Ala-D-Ala); assay: ITC, preliminary experiments; format: binding; settings: absence of serum proteins
# [3] = tested on: Lys-D-Ala-D-Lactate; assay: ITC, preliminary experiments; format: binding; settings: absence of serum proteins
# [4] = tested on: N,N′-diacetyl-Lys-D-Ala-D-Ala; assay: ITC of binding to tri-peptide cell-wall analog, with and without HSA; settings: control ITC experiments with HSA
# Description: Peptide concentrations were determined by weight.
# Trans. R. Soc. Lond. Ser. A-Math. Phys. Eng. […] Wiley, (1998) p 103-111; and Cooper, A., Curr. Opin. Chem. Biol. (1999) 3, 557-563.
# [5] = ESI-MS analysis of multimers in solution; settings: dalbavancin 0.1 mg/ml in 8:2 water:isopropanol; teicoplanin 50 and 100 μg/mL in water
# Description: Experiments were performed using an Applied Biosystem API III+ mass spectrometer equipped with a TurboIonSpray source, a Triple Quadrupole analyzer, operating in positive ion mode.
# The mass spectra were obtained in electrospray positive mode on a Finnigan LCQ^Deca ion trap instrument previously tuned and calibrated in electrospray mode using Ultramark 1621, caffeine and MRFA (L-metionyl-arginyl-phenilalanyl-arginine).
# [6] = tested on: human α-glycoprotein; assay: Protein binding by ITC; settings: protein […]10^−5 M assumed
# [7] = target: human albumin (Homo sapiens, UniProt P02768); assay: Protein binding by isothermal titration microcalorimetry (ITC); settings: for Calculated percent Binding to Human albumin: albumin 6×10^−4 M assumed
# human albumin, sequence (P02768 25-609): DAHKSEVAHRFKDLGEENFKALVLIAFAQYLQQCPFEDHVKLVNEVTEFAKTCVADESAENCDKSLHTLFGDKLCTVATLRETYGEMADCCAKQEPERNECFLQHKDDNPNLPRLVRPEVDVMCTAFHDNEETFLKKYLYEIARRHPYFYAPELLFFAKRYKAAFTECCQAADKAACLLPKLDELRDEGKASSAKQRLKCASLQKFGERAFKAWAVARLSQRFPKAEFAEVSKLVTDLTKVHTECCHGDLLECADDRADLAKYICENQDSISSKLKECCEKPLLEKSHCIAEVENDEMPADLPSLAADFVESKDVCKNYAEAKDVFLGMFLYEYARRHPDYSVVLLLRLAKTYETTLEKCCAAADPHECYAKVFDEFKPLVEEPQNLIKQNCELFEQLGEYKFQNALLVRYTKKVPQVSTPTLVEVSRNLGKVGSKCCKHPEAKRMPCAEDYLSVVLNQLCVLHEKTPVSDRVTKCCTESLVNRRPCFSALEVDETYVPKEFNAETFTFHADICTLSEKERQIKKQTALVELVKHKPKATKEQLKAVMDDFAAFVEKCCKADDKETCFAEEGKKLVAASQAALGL
compound,measurement,setting,value
CN[C@H]1C(=O)N[C@@H]2Cc3ccc(cc3)Oc3cc4cc(c3O[C@@H]3O[C@H](C(=O)O)[C@@H](O)[C@H](O)[C@H]3NC(=O)CCCCCCCCC(C)C)Oc3ccc(cc3Cl)[C@@H](O)[C@@H]3NC(=O)[C@H](NC(=O)[C@@H]4NC(=O)[C@@H](NC2=O)c2cc(cc(O)c2Cl)Oc2cc1ccc2O)c1ccc(O)c(c1)-c1c(O[C@H]2O[C@H](CO)[C@@H](O)[C@H](O)[C@@H]2O)cc(O)cc1[C@@H](C(=O)NCCCN(C)C)NC3=O [^3H-dalbavancin],Dose remaining in the carcass,"[1]; 70 days post dose, mass balance study",4.5 % of the dose
same,Plasma t1/2,"[1]; rats, single IV 20 mg/kg",approximately 1 week
"CN[C@H](CC(C)C)C(=O)N[C@H]1C(=O)N[C@@H](CC(N)=O)C(=O)N[C@H]2C(=O)N[C@H]3C(=O)N[C@H](C(=O)N[C@H](C(=O)O)c4cc(O)cc(O)c4-c4cc3ccc4O)[C@H](O)c3ccc(c(Cl)c3)Oc3cc2cc(c3O[C@@H]2O[C@H](CO)[C@@H](O)[C@H](O)[C@H]2O[C@H]2C[C@](C)(N)[C@H](O)[C@H](C)O2)Oc2ccc(cc2Cl)[C@H]1O [vancomycin, reference compound]",Binding to dipeptide (D-Ala-D-Ala),[2],no evidence of binding
same,Binding to Lys-D-Ala-D-Lactate,[3],no evidence of binding
same,Binding to tri-peptide in the presence of HSA (control),[4],comparable to those seen in the absence of HSA
Teicoplanin [reference compound],Multimers in solution,[5],does not show multimeric complexes in solution
same,Calculated percent Binding to Human α-glycoprotein,[6]; antibiotic 1 μM,9.6%
same,Calculated percent Binding to Human α-glycoprotein,[6]; antibiotic 10 μM,9.1%
same,Calculated percent Binding to Human α-glycoprotein,[6]; antibiotic 100 μM,6.0%
same,Calculated percent Binding to Human albumin,[7]; antibiotic 1 μM,98.3%
same,Calculated percent Binding to Human albumin,[7]; antibiotic 10 μM,98.3%
same,Calculated percent Binding to Human albumin,[7]; antibiotic 100 μM,98.0%
same,Binding stoichiometry antibiotic:protein,[7]; binding stoichiometry modeling of ITC data,1:1 binding
